The results in this text go back to patent US5543530A, “4-arylisoindole analgesics” (Ortho Pharmaceutical Corporation, priority 1993, dated 1996).

For the first assay, the system named is Acetylcholine-Bromide Induced Abdominal Constriction. Put plainly: Mouse Acetylcholine Bromide-Induced Abdominal Constriction Assay. It counts as in vivo. The conditions noted are these: @10 mpk/ko (so in the source). From the text:
Mouse Acetylcholine Bromide-Induced Abdominal Constriction Assay
The mouse acetylcholine-induced abdominal constiction assay, as described by Collier et al. in Brit. J. Pharmacol. Chem. Ther., 32:295-310, 1968, with minor modifications was used to assess analgesic potency of the compounds of formula (I). […] The mice were then placed in groups of three into glass bell jars and observed for a ten minute observation period for the occurrence of an abdominal constriction response (defined as a wave of constriction and elongation passing caudally along the abdominal wall, accompanied by a twisting of the trunk and followed by extension of the hind limbs). The percent inhibition of this response to a nociceptive stimulus (equated to % analgesia) was calculated as follows: The % Inhibition of response, i.e., % analgesia is equal to the difference between the No. of control animals response and the No. of drug-treated animals response times 100 divided by the No. of control animals responding.
At least 15 animals were used for control and in each of the drug treated groups. At least three doses were used to determine each dose response curve and ED50 (that dose which would produce 50% analgesia). The ED50 values and their 95% fiducial limits were determined by a computer assisted probit analysis.
As a reminder, the % Inhibition is the percentage by which the read-out fell short of the control. Higher therefore signals a strong effect. For the compound `CN1C[C@@H]2CCC[C@@](O)(c3ccccc3)[C@@H]2C1` (single isomer, unassigned) [Cp-12, (-)-4β-Hydroxy-2-Methyl-4-Phenyl-3aα,7aα-Octahydroisoindole], the “% Inhibition” value worked out at 90%.

Staying with this assay, now noted: @10 mpk/po.
For the compound `CN1C[C@@H]2CCC[C@@](O)(c3ccccc3)[C@@H]2C1` (single isomer, unassigned) [Cp-15, (+)-4β-Hydroxy-2-Methyl-4-phenyl-3aα,7aα-octahydroisoindole], the “% Inhibition” value was 90%.

Still in this assay, the particulars now being: @30 mpk/po.
`COc1ccc([C@]2(O)CCC[C@H]3CN(C)C[C@H]32)cc1` (relative stereo) [Cp-3]: the “% Inhibition” value is 46-93%.

Turning to `O[C@@]1(c2cccc(C(F)(F)F)c2)CCC[C@H]2CN(Cc3ccccc3)C[C@H]21` (relative stereo) [Cp-18], the “% Inhibition” value is on record as 71%.

The assay is the same for the next values; noted with them: @30 mpk/sc.
`COc1cccc([C@]2(O)CCC[C@H]3CN(Cc4ccccc4)C[C@H]32)c1` (relative stereo) [Cp-13]: the “% Inhibition” value is 75%.

The assay is the same for the next values; noted with them: Mus musculus, 0.5 h; po; 5.5 mg/kg i.p. acetylcholine bromide 30 minutes after drug; read-out: ED50 (dose which would produce 50% analgesia).
Usually ED50 stands for the dose at which the effect has come halfway, by size or by number of responders. Turning to `CN1C[C@@H]2CCC[C@@](O)(c3cccs3)[C@@H]2C1` (relative stereo) [Cp-1], the ED50 turned out to be 7.3 mg/kg.

As to `CN1C[C@@H]2CCC[C@@](O)(c3ccc(F)cc3)[C@@H]2C1` (relative stereo) [Cp-4], the 50% effective dose (ED50) worked out at 0.76 mg/kg.

`CN1C[C@@H]2CCC[C@@](O)(c3cccc4ccccc34)[C@@H]2C1` (relative stereo) [Cp-5]: the ED50 amounted to 16.6 mg/kg.

As to `CN1C[C@@H]2CCC[C@@](O)(c3cccnc3)[C@@H]2C1` (relative stereo) [Cp-6], the ED50 was 30.4 mg/kg.

As to `CN1C[C@@H]2CCC[C@@](O)(c3cccc(F)c3)[C@@H]2C1` (relative stereo) [Cp-7], the ED50 was 5.38 mg/kg.

On to `CN1C[C@@H]2CCC[C@@](O)(c3cccc(C(F)(F)F)c3)[C@@H]2C1` (relative stereo) [Cp-8], for which the ED50 was determined as 2.08 mg/kg.

Regarding `CN1C[C@@H]2CCC[C@@](O)(c3ccccn3)[C@@H]2C1` (relative stereo) [Cp-9], the ED50 amounted to 15.4 mg/kg.

`CN1C[C@@H]2CCC[C@@](O)(c3ccc(Cl)cc3Cl)[C@@H]2C1` (relative stereo) [Cp-11]: the ED50 worked out at 1.36 mg/kg.

In the case of `CN1C[C@@H]2CCC[C@@](O)(c3ccccc3)[C@@H]2C1` (relative stereo) [Cp-16], the ED50 worked out at 3.9 mg/kg.

In the case of `O[C@@]1(c2cccc(C(F)(F)F)c2)CCC[C@H]2CNC[C@H]21` (relative stereo) [Cp-19], the ED50 worked out at 4.2 mg/kg.

Consider `O[C@@]1(c2ccc(C(F)(F)F)cc2)CCC[C@H]2CN(Cc3ccccc3)C[C@H]21` (relative stereo) [Cp-20], for which the ED50 was found to be 10.7 mg/kg.
